Entries after “also recorded” stand apart in the source; their conditions may differ.
Key:
[1] = test system: MtENOD11::GUS in plant bearing a mutation in the DMI1 gene; test: Induction of early nodulin ENOD11 transcription, MtENOD11::GUS reporter, plants bearing a mutation in the DMI1 gene; format: in vivo, Medicago truncatula; conditions: DMI1 mutant plants, 6 hours LCO treatment, X-Gluc
Description: (§1) These tests are performed to determine whether the synthetic LCOs induce symbiotic responses by activation on the same signal transduction pathway as the natural Nod factors. The tests are performed on the model legume Medicago truncatula. […] The compound that serves as reference is the sulfated tetramer 12 acylated with C16:2Δ2E,9Z chain, which is an analog of the natural Nod factor. The control is the plant cultivated in the absence of LCO.
(§2) A new gene of Medicago truncatula, MtENOD11, coding for an RPRP (Repetitive proline-rich protein), and transcribed during the first steps of infection of nodulation on the nodule roots and tissues was identified (Journet et al. Mol. Plant-Microbe Interact., 14, 737-748, 2001). Using the transgenic Medicago truncatula plant expressing the fusion MtENOD11::GUSA, it is possible to determine whether a Nod factor analog added to the culture medium of the plant has induced transcription of the ENOD11 gene.
(§3) For the ENOD11 transcription tests, a Fahraeus medium is used as for the modulation tests, but without agar. The seedlings are placed on paper in pockets containing the culture medium. […] The number of roots giving a characteristic blue response is then counted.

alfalfa = test: Nodulation tests on alfalfa (induction of the formation of root nodules); format: in vivo; conditions: alfalfa plantlets; for nodulation activity relative to the benzamide derivative 3: FIG. 2-4
Description: The sulfated products are tested on alfalfa for induction of the formation of root nodules, and on the model legume Medicago truncatula for induction of the expression of a symbiotic gene coding for an early nodulin. Alfalfa plantlets are grown under axenic conditions in test tubes on a nitrogen-poor agar medium (Demont-Caulet et al., Plant Physiol., 120, 83-92, 1999). Untreated plantlets serve as control. Natural Nod or synthetic LCO factors are added at the concentrations indicated.

MtENOD11::GUSA = test: Induction of early nodulin ENOD11 transcription, MtENOD11::GUSA reporter, wild-type Jemalong plants; format: in vivo, Medicago truncatula; conditions: 6 hours LCO treatment, X-Gluc blue roots counted, FIG. 5
Description: as §1, §2, §3

Lotus corniculatus = test: Root hair deformation assay on Lotus corniculatus; format: in vivo; set-up: key to Root hair deformation (Had) response: The responses were classified “+” when the proportion of Had+ was significantly higher (at the probability level P=0.05) among the treated plants compared with the untreated control; conditions: for Root hair deformation (Had) response: 15 plants, 16 hr incubation
Description: Seeds of Lotus corniculatus (cv Rodeo) were sterilized. Germinated seeds with rootlets about 1 cm long were aseptically transferred onto Farhaeus soft agar plates. Plates were sealed with Parafilm and placed vertically for two days in a plant growth chamber (at 25° C., with a 16-hr light period, a relative humidity of 75%, OsramVFluora L 77 as the type of light, and light intensity at the level of the top of the plates of 30 μE.m-2.s-1) to allow plant growth and root hair development. Then 2 ml of a Nod factor derivative sterile solution was poured to cover the Lotus root system, and after 30 mm, excess liquid was removed. A further incubation was performed for 16 hr in the plant growth chamber. The roots of the five plants were transferred between slide and cover slip and observed by bright field microscopy after staining by methylene blue.
Hair deformation (Had) activity was estimated by a limit dilution method. Nod factor derivatives were applied at concentrations ranging from 10^-7 M to 10-11 M. The activity of two DP5 chitin derivatives were compared, the soybean Nod factor and its benzoylated analog 10. Both compounds were O-fucosylated at the reducing end, but differed by the N-substitution on the terminal non-reducing glucosamine residue, either C18:1 N-acylated like the soybean Nod factor or N-benzoylated. Each compound was dissolved in water/ethanol 50/50; 0,01% Chaps was added at a concentration of 1 mM. These stock solutions were then diluted in water. […] The statistical significance (at the P=0.05) of the proportion of <<+>> responses was calculated using the ratio comparisons based on the Fisher's <<Exact>> test (SAS software). Experiments were carried out twice.
Fifteen plants were used for each treatment and each dilution. Sixty six untreated control plants were used to estimate the intrinsic plant variability for the Hair deformation character. […] Data were analysed using the Fisher's “Exact” test.

Compound: CCCCCC/C=C\CCCOc1cccc(C(=O)N[C@H]2[C@H](O[C@H]3[C@H](O)[C@@H](NC(C)=O)[C@H](O[C@H]4[C@H](O)[C@@H](NC(C)=O)[C@H](O[C@H]5[C@H](O)[C@@H](NC(C)=O)C(O)O[C@@H]5COS(=O)(=O)[O-])O[C@@H]4CO)O[C@@H]3CO)O[C@H](CO)[C@@H](O)[C@@H]2O)c1.[Na+] (stereo partly drawn) [compound 3, 2-acetamido-4-O-{2-acetamido-4-O-[2-acetamido-2-deoxy-4-O-(2-deoxy-2-(N-3-(undec-4Z-enyloxy)benzoyl)amino-β-D-glucopyranosyl)-β-D-glucopyranosyl]-2-deoxy-β-D-glucopyranosyl}-2-deoxy-6-O-sulfo-D-glucopyranose, sodium salt]
- ENOD11::GUS response in plants bearing the DMI1 mutation [1]: does not induce any response
- nodulation activity on alfalfa (alfalfa; axenic, nitrogen-poor agar medium, result in words, sodium salt): advantageous activity; also recorded: most active synthetic compound
- nodulation activity relative to the sulfated tetramer 11 acylated with the reference C16:1Δ9Z chain (alfalfa; FIG. 1): similar
- ENOD11 transcription, times less active than the reference compound, the acylated tetramer 12 (MtENOD11::GUSA): approximately 10 times

Compound: CCCCCCC#CCCCOc1cccc(C(=O)N[C@H]2[C@H](O[C@H]3[C@H](O)[C@@H](NC(C)=O)[C@H](O[C@H]4[C@H](O)[C@@H](NC(C)=O)[C@H](O[C@H]5[C@H](O)[C@@H](NC(C)=O)C(O)O[C@@H]5COS(=O)(=O)[O-])O[C@@H]4CO)O[C@@H]3CO)O[C@H](CO)[C@@H](O)[C@@H]2O)c1.[Na+] (stereo partly drawn) [compound 7, 2-acetamido-4-O-{2-acetamido-4-O-[2-acetamido-2-deoxy-4-O-(2-deoxy-2-(N-3-(undec-4Z-ynyloxy)benzoyl)amino-β-D-glucopyranosyl)-β-D-glucopyranosyl]-2-deoxy-β-D-glucopyranosyl}-2-deoxy-6-O-sulfo-D-glucopyranose, sodium salt]
- nodulation activity relative to the benzamide derivative 3 (alfalfa): comparable

Compound: CCCCCC/C=C\CCCOc1cccc(C(=O)NC2C(O)[C@H](O)C(CO)O[C@H]2O[C@@H]2C(CO)O[C@@H](O[C@@H]3C(CO)O[C@@H](O[C@@H]4C(CO)O[C@@H](O[C@@H]5C(CO[C@@H]6OC(C)[C@@H](O)C(O)C6O)OC(O)C(NC(C)=O)C5O)C(NC(C)=O)C4O)C(NC(C)=O)C3O)C(NC(C)=O)C2O)c1 (stereo partly drawn) [compound 10, 2-acetamido-4-O-[2-acetamido-4-O-{2-acetamido-4-O-[2-acetamido-2-deoxy-4-O-(2-deoxy-2-(N-3-(undec-4Z-enyloxy)benzoyl)amino-β-D-glucopyranosyl)-β-D-glucopyranosy]-2-deoxy-β-D-glucopyranosyl}-2-deoxy-β-D-glucopyranosyl]-2-deoxy-6-O-(-α-L-fucopyranosyl)-D-glucopyranose]
- Root hair deformation (Had) response (Lotus corniculatus; 10^−7 M): +
- Root hair deformation (Had) response (Lotus corniculatus; 10^−8 M): +
- Root hair deformation (Had) response (Lotus corniculatus; 10^−9 M): +
- concentration at which activity is significant in the root hair bioassay (Lotus corniculatus; limit dilution method): nanomolar
- activity on the Lotus corniculatus root hair bioassay (Lotus corniculatus; result in words): high activity

Compound: CCCCCC/C=C\CCCOc1cccc(CN(C(C)=O)[C@H]2[C@H](O[C@H]3[C@H](O)[C@@H](NC(C)=O)[C@H](O[C@H]4[C@H](O)[C@@H](NC(C)=O)[C@H](O[C@H]5[C@H](O)[C@@H](NC(C)=O)C(O)O[C@@H]5COS(=O)(=O)[O-])O[C@@H]4CO)O[C@@H]3CO)O[C@H](CO)[C@@H](O)[C@@H]2O)c1.[Na+] (stereo partly drawn) [compound 5, 2-acetamido-4-O-{2-acetamido-4-O-[2-acetamido-2-deoxy-4-O-(2-deoxy-2-(N-3-(undec-4Z-enyloxy)benzyl)acetamido-β-D-glucopyranosyl)-β-D-glucopyranosyl]-2-deoxy-β-D-glucopyranosyl}-2-deoxy-6-O-sulfo-D-glucopyranose, sodium salt]
- nodulation activity relative to the benzamide derivative 3 (alfalfa): lower

Compound: CCCCCC/C=C\CCCOc1cccc(CN[C@H]2[C@H](O[C@H]3[C@H](O)[C@@H](NC(C)=O)[C@H](O[C@H]4[C@H](O)[C@@H](NC(C)=O)[C@H](O[C@H]5[C@H](O)[C@@H](NC(C)=O)C(O)O[C@@H]5COS(=O)(=O)[O-])O[C@@H]4CO)O[C@@H]3CO)O[C@H](CO)[C@@H](O)[C@@H]2O)c1.[Na+] (stereo partly drawn) [compound 4, 2-acetamido 4-O-{2-acetamido-4-O-[2-acetamido-2-deoxy-4-O-(2-deoxy-2-(N-3-(undec-4Z-enyloxy)benzyl)amino-β-D-glucopyranosyl)-β-D-glucopyranosyl]-2-deoxy-β-D-glucopyranosyl}-2-deoxy-6-O-sulfo-D-glucopyranose, sodium salt]
- nodulation activity relative to the benzamide derivative 3 (alfalfa): moderate activity

Reference: patent US7619076B2, “Synthetic compounds useful as nodulation agents of leguminous plants and preparation processes thereof” (Bayer Cropscience S.A., priority 2003, dated 2009)
